According to patent publication EP2768830B1, “APOPTOSIS-INDUCING AGENTS FOR THE TREATMENT OF CANCER AND IMMUNE AND AUTOIMMUNE DISEASES” (AbbVie Inc., priority 2011, dated 2013):
Read-outs that look alike come from different tables or passages of the source.

Columns and labels:
[1] = tested on: mouse FL5.12 cells transfected with Bcl-XL; experiment: FL5.12 cellular assay (cell viability, CellTiter-Glo); format: cell-based; details: FL5.12 cells transfected with Bcl-XL, IL-3-depleted, 3% FBS assay media, 24 hours, CellTiter-Glo, read-out: FL5.12 Bcl-xL, - IL3, EC 50;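 also: each EC50 determination derived from duplicate measurements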
Description: For assaying the compound activity, the cells were exchanged into an IL-3-depleted deprivation media, which was identical to the growth media except for the absence of FBS and WEHI-3B conditional media, for 2 days. Then the cells were exchanged to 3% FBS assay media (RPMI with 2 mM glutamine, 1% 100 mM sodium pyruvate, 2% 1 M HEPES, 4 µL/L of β-mercaptoethanol, 1% penicillin-streptomycin, 3% FBS). Compounds in series dilutions were added, and the cells were cultured for 24 hours. Compounds in series dilutions were added, and the cells were cultured for 24 hours. Cell viability was assayed using the CellTiter-Glo assay (Promega Corp., Madison, WI) according to the manufacturer instructions. Individual determinations were the result of duplicate values.

GST-Bcl-xL = GST-Bcl-xL (Homo sapiens, UniProt Q07817); details: read-out: TR-FRET binding Bcl-xL Ki
GST-Bcl-xL, sequence (Q07817 whole entry): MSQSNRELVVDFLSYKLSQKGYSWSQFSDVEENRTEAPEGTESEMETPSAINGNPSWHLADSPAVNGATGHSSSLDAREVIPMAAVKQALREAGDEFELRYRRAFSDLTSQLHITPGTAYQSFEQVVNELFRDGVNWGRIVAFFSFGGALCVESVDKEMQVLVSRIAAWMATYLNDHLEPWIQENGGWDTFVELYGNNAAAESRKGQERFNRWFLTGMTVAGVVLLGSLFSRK

Structure (SMILES)	EC50 ([1]; Mus musculus)	Ki (GST-Bcl-xL)	EC50 [1]
COCC(COC1(Cn2ncc(-c3ccc(N4CCc5cccc(C(=O)Nc6nc7ccccc7s6)c5C4)nc3C(=O)O)c2C)CCCCCC1)OC (stereo not drawn) [Example 170, 6-[8-(1,3-benzothiazol-2-ylcarbamoyl)-3,4-dihydroisoquinolin-2(1H)-yl]-3-(1-{[1-(2,3-dimethoxypropoxy)cycloheptyl]methyl}-5-methyl-1H-pyrazol-4-yl)pyridine-2-carboxylic acid]	0.5 nM	< 0.1 nM	
O=C(Nc1nc2ccccc2s1)c1cccc2c1CN(c1ccc(-c3cccc(Oc4ccccc4)c3)c(C(=O)O)n1)CC2 [Example 103, 6-[8-(1,3-benzothiazol-2-ylcarbamoyl)-3,4-dihydroisoquinolin-2(1H)-yl]-3-(3-phenoxyphenyl)pyridine-2-carboxylic acid]		0.6 nM	> 1000 nM
CN(C)CCOc1cccc(Cn2cc(-c3ccc(N4CCc5cccc(C(=O)Nc6nc7ccccc7s6)c5C4)nc3C(=O)O)cn2)c1 [Example 18, 6-[8-(1,3-benzothiazol-2-ylcarbamoyl)-3,4-dihydroisoquinolin-2(1H)-yl]-3-(1-{3-[2-(dimethylamino)ethoxy]benzyl}-1H-pyrazol-4-yl)pyridine-2-carboxylic acid]	621 nM	38 nM	
Cc1c(-c2ccc(N3CCc4cccc(C(=O)Nc5nc6ccccc6s5)c4C3)nc2C(=O)O)cnn1CC1CCC(F)(F)CC1 [Example 73, 6-[8-(1,3-benzothiazol-2-ylcarbamoyl)-3,4-dihydroisoquinolin-2(1H)-yl]-3-{1-[(4,4-difluorocyclohexyl)methyl]-5-methyl-1H-pyrazol-4-yl}pyridine-2-carboxylic acid]	8 nM	0.9 nM	
COC1(Cn2ncc(-c3ccc(N4CCc5cccc(C(=O)Nc6nc7ccccc7s6)c5C4)nc3C(=O)O)c2C)CCCC(C)(C)C1 (stereo not drawn) [Example 157, 6-[8-(1,3-benzothiazol-2-ylcarbamoyl)-3,4-dihydroisoquinolin-2(1H)-yl]-3-{1-[(1-methoxy-3,3-dimethylcyclohexyl)methyl]-5-methyl-1H-pyrazol-4-yl}pyridine-2-carboxylic acid]	0.3 nM	< 0.1 nM	
O=C(Nc1nc2ccccc2s1)c1cccc2c1CN(c1ccc(-c3cnn(Cc4ccccc4[N+](=O)[O-])c3)c(C(=O)O)n1)CC2 [Example 57, 6-[8-(1,3-benzothiazol-2-ylcarbamoyl)-3,4-dihydroisoquinolin-2(1H)-yl]-3-[1-(2-nitrobenzyl)-1H-pyrazol-4-yl]pyridine-2-carboxylic acid]	741 nM	14 nM	
O=C(Nc1nc2ccccc2s1)c1cccc2c1CN(c1ccc(-c3cnn(Cc4ccccn4)c3)c(C(=O)O)n1)CC2 [Example 26, 6-[8-(1,3-benzothiazol-2-ylcarbamoyl)-3,4-dihydroisoquinolin-2(1H)-yl]-3-[1-(pyridin-2-ylmethyl)-1H-pyrazol-4-yl]pyridine-2-carboxylic acid]		167 nM	> 1000 nM
COCCC(C1CCCCC1)n1ncc(-c2ccc(N3CCc4cccc(C(=O)Nc5nc6ccccc6s5)c4C3)nc2C(=O)O)c1C (stereo not drawn) [Example 184, 6-[8-(1,3-benzothiazol-2-ylcarbamoyl)-3,4-dihydroisoquinolin-2(1H)-yl]-3-[1-(1-cyclohexyl-3-methoxypropyl)-5-methyl-1H-pyrazol-4-yl]pyridine-2-carboxylic acid]	2 nM	< 0.1 nM	
Cc1c(-c2ccc(N3CCc4cccc(C(=O)Nc5nc6ccccc6s5)c4C3)nc2C(=O)O)cc(C#N)n1Cc1ccccc1 [Example 129, 6-[8-(1,3-benzothiazol-2-ylcarbamoyl)-3,4-dihydroisoquinolin-2(1H)-yl]-3-(1-benzyl-5-cyano-2-methyl-1H-pyrrol-3-yl)pyridine-2-carboxylic acid]	18 nM	< 0.1 nM	
Cc1c(-c2ccc(N3CCc4cccc(C(=O)Nc5nc6ccccc6s5)c4C3)nc2C(=O)O)cnn1CC1(C)CCCCC1 [Example 82, 6-[8-(1,3-benzothiazol-2-ylcarbamoyl)-3,4-dihydroisoquinolin-2(1H)-yl]-3-{5-methyl-1-[(1-methylcyclohexyl)methyl]-1H-pyrazol-4-yl}pyridine-2-carboxylic acid]	8 nM	0.5 nM	
Cc1c(-c2ccc(N3CCc4cccc(C(=O)Nc5nc6ccccc6s5)c4C3)nc2C(=O)O)cnn1CC1(OCCS(C)(=O)=O)CCCC(C)(C)C1 (stereo not drawn) [Example 178, 6-[8-(1,3-benzothiazol-2-ylcarbamoyl)-3,4-dihydroisoquinolin-2(1H)-yl]-3-[1-({3,3-dimethyl-1-[2-(methylsulfonyl)ethoxy]cyclohexyl}methyl)-5-methyl-1H-pyrazol-4-yl]pyridine-2-carboxylic acid]	0.2 nM	< 0.1 nM	
COc1ccc2nc(NC(=O)c3cccc4c3CN(c3ccc(-c5cnn(Cc6ccccc6)c5)c(C(=O)O)n3)CC4)sc2c1 [Example 11, 3-(1-benzyl-1H-pyrazol-4-yl)-6-{8-[(6-methoxy-1,3-benzothiazol-2-yl)carbamoyl]-3,4-dihydroisoquinolin-2(1H)-yl}pyridine-2-carboxylic acid]		180 nM	> 1000 nM
O=C(Nc1nc2ccccc2s1)c1cccc2c1CN(c1ccc(-c3cnn(Cc4cccc(C(F)(F)F)c4)c3)c(C(=O)O)n1)CC2 [Example 61, 6-[8-(1,3-benzothiazol-2-ylcarbamoyl)-3,4-dihydroisoquinolin-2(1H)-yl]-3-{1-[3-(trifluoromethyl)benzyl]-1H-pyrazol-4-yl}pyridine-2-carboxylic acid]	380 nM	11 nM	
O=C(Nc1nc2ccccc2s1)c1cccc2c1CN(c1ccc(-c3cnn(Cc4cccc(-c5ccccc5)c4)c3)c(C(=O)O)n1)CC2 [Example 58, 6-[8-(1,3-benzothiazol-2-ylcarbamoyl)-3,4-dihydroisoquinolin-2(1H)-yl]-3-[1-(biphenyl-3-ylmethyl)-1H-pyrazol-4-yl]pyridine-2-carboxylic acid]	> 1000 nM	174 nM	
COC1(Cn2ncc(-c3ccc(N4CCc5cccc(C(=O)Nc6nc7ccccc7s6)c5C4)nc3C(=O)O)c2C)CCCCC1 [Example 165, 6-[8-(1,3-benzothiazol-2-ylcarbamoyl)-3,4-dihydroisoquinolin-2(1H)-yl]-3-{1-[(1-methoxycyclohexyl)methyl]-5-methyl-1H-pyrazol-4-yl}pyridine-2-carboxylic acid]	9 nM	< 0.1 nM	
O=C(Nc1nc2ccccc2s1)c1cccc2c1CN(c1ccc(-c3cnn(Cc4ccccc4N4CCOCC4)c3)c(C(=O)O)n1)CC2 [Example 76, 6-[8-(1,3-benzothiazol-2-ylcarbamoyl)-3,4-dihydroisoquinolin-2(1H)-yl]-3-{1-[2-(morpholin-4-yl)benzyl]-1H-pyrazol-4-yl}pyridine-2-carboxylic acid]	> 1000 nM	29 nM	
Cc1ccc(S(=O)(=O)n2ccc(-c3ccc(N4CCc5cccc(C(=O)Nc6nc7ccccc7s6)c5C4)nc3C(=O)O)c2)cc1 [Example 126, 6-[8-(1,3-benzothiazol-2-ylcarbamoyl)-3,4-dihydroisoquinolin-2(1H)-yl]-3-{1-[(4-methylphenyl)sulfonyl]-1H-pyrrol-3-yl}pyridine-2-carboxylic acid]	> 1000 nM	47 nM	
CN(C)c1cccc(Cn2cc(-c3ccc(N4CCc5cccc(C(=O)Nc6nc7ccccc7s6)c5C4)nc3C(=O)O)cn2)c1 [Example 34, 6-[8-(1,3-benzothiazol-2-ylcarbamoyl)-3,4-dihydroisoquinolin-2(1H)-yl]-3-{1-[3-(dimethylamino)benzyl]-1H-pyrazol-4-yl}pyridine-2-carboxylic acid]	907 nM	23 nM	
O=C(Nc1nc2ccccc2s1)c1cccc2c1CN(c1ccc(-c3cnn(C(CC4CCCCC4)c4ccccc4)c3)c(C(=O)O)n1)CC2 (stereo not drawn) [Example 96, 6-[8-(1,3-benzothiazol-2-ylcarbamoyl)-3,4-dihydroisoquinolin-2(1H)-yl]-3-[1-(2-cyclohexyl-1-phenylethyl)-1H-pyrazol-4-yl]pyridine-2-carboxylic acid]	620 nM	12 nM	
Cc1c(OCC2CCCCC2)cccc1-c1ccc(N2CCc3cccc(C(=O)Nc4nc5ccccc5s4)c3C2)nc1C(=O)O [Example 112, 6-[8-(1,3-benzothiazol-2-ylcarbamoyl)-3,4-dihydroisoquinolin-2(1H)-yl]-3-[3-(cyclohexylmethoxy)-2-methylphenyl]pyridine-2-carboxylic acid]	523 nM	0.7 nM	
N#Cc1nn(Cc2ccccc2)cc1-c1ccc(N2CCc3cccc(C(=O)Nc4nc5ccccc5s4)c3C2)nc1C(=O)O [Example 27, 6-[8-(1,3-benzothiazol-2-ylcarbamoyl)-3,4-dihydroisoquinolin-2(1H)-yl]-3-(1-benzyl-3-cyano-1H-pyrazol-4-yl)pyridine-2-carboxylic acid]	> 1000 nM	315 nM	
CN(C)CCOc1ccccc1Cn1cc(-c2ccc(N3CCc4cccc(C(=O)Nc5nc6ccccc6s5)c4C3)nc2C(=O)O)cn1 [Example 40, 6-[8-(1,3-benzothiazol-2-ylcarbamoyl)-3,4-dihydroisoquinolin-2(1H)-yl]-3-(1-{2-[2-(dimethylamino)ethoxy]benzyl}-1H-pyrazol-4-yl)pyridine-2-carboxylic acid]	570 nM	16 nM	
O=C(Nc1nc2ccccc2s1)c1cccc2c1CN(c1ccc(-c3cn(Cc4ccccc4)c4cnccc34)c(C(=O)O)n1)CC2 [Example 188, 6-[8-(1,3-benzothiazol-2-ylcarbamoyl)-3,4-dihydroisoquinolin-2(1H)-yl]-3-(1-benzyl-1H-pyrrolo[2,3-c]pyridin-3-yl)pyridine-2-carboxylic acid]	546 nM	0.5 nM	
O=C(Nc1nc2ccccc2s1)c1cccc2c1CN(c1ccc(-c3cnn(Cc4cccc(F)c4F)c3)c(C(=O)O)n1)CC2 [Example 52, 6-[8-(1,3-benzothiazol-2-ylcarbamoyl)-3,4-dihydroisoquinolin-2(1H)-yl]-3-[1-(2,3-difluorobenzyl)-1H-pyrazol-4-yl]pyridine-2-carboxylic acid]	570 nM	18 nM	
